Experimental data reported in patent US20250127906A1, “SMALL-MOLECULE DEGRADERS OF CDK8 AND CDK19” (University of South Carolina, priority 2021, published 2025).
Marks after values point to notes of the source that are not given here.

Molecular target: CDK8 (Homo sapiens, UniProt P49336)
Assay: CDK8 degradation in HEK-293 cells (Western blot, normalized by GAPDH)
Assay type: cell-based
Set-up: endogenous in cells; host or cells: HEK-293
Conditions: HEK-293 cells; for % CDK8 remaining: 24 hours
Procedure: Table 1 presents the structures of 35 different chimeras that have been synthesized, together with their effects (at 1 μM or 0.3 μM concentrations) on CDK8 degradation in HEK-293 cells. The synthesis schemes of all the compounds are described below. CDK8 degradation was measured by Western blot analysis of RIPA lysates of HEK-293cells treated with or without the test compound for 24 hours, using antibodies against CDK8 (Santa Cruz sc-1521) and housekeeping protein GAPDH (Santa Cruz sc-32233) (loading control) Protein bands on immunoblotted PVDF membranes were visualized with Western Lighting Plus ECL detection reagent (Perkin Elmer, Waltham, MA, USA) using ChemiDoc Touch™ (Bio-Rad). Image processing and densitometry analysis were performed using ImageLab software (Bio-Rad) to quantify the CDK8 protein levels (normalized by GAPDH) and evaluate the effects of compound treatment.
FIGS. 2F and 2G show the effects of different concentrations of potent Senexin C- and BI-1347-based PROTACs on CDK8 and CDK19 degradation in HEK-293cells. Based on these assays, we calculated DC50 values that correspond to PROTAC concentrations inducing degradation of CDK8 and CDK19 to the half of protein level in untreated cells. The corresponding CDK8 DC50 values were 46 nM for IA7843, 6.6 nM for IA7882 and 2.8 nM for IA7886, and CDK19 DC50 values were 1 μM for IA7843, 25 nM for IA7882 and 10 nM for IA7886.

Chain of CDK8 (P49336 whole entry): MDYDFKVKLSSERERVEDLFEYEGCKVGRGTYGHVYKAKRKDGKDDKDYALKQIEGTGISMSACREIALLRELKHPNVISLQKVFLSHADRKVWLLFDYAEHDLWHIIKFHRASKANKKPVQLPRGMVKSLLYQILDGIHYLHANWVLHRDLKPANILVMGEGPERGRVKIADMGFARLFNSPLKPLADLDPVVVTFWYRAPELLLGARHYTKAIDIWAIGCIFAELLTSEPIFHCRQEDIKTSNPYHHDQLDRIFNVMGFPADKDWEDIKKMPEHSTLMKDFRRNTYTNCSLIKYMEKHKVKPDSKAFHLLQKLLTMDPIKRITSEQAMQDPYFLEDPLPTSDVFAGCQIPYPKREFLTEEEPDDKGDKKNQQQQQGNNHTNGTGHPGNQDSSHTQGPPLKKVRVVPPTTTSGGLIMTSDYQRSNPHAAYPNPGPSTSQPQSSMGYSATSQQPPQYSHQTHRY
Chain of CDK8 (P24863 whole entry partner): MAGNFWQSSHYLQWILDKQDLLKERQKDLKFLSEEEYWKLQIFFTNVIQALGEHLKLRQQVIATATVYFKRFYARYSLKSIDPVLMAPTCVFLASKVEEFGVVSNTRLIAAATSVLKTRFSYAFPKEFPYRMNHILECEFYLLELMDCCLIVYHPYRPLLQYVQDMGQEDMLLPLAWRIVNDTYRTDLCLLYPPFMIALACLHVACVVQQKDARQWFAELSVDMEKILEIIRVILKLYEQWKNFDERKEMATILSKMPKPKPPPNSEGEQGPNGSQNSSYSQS

Structure (SMILES) | % CDK8 remaining (tested at 1 μM) [%] | % CDK8 remaining (tested at 0.3 μM (marked *)) [%*] | CDK8 degradation (in words) (Western blot)
N#Cc1ccc2nccc(NCCc3ccc4cc(C(=O)N5CCN(C(=O)CCCCCCCCNC(=O)CCCCCNc6cccc7c6C(=O)N(C6CCC(=O)NC6=O)C7=O)CC5)ccc4c3)c2c1 (stereo not drawn) [IA7860, N-[9-[4-[6-[2-[(6-cyano-4-quinolyl)amino]ethyl]naphthalene-2-carbonyl]piperazin-1-yl]-9-oxo-nonyl]-6-[[2-(2,6-dioxo-3-piperidyl)-1,3-dioxo-isoindolin-4-yl]amino]hexanamide] | 95 | – | –
N#Cc1ccc2nccc(NCCc3ccc4cc(C(=O)N5CCN(C(=O)CCCCCCCCNC(=O)CCCCNc6cccc7c6C(=O)N(C6CCC(=O)NC6=O)C7=O)CC5)ccc4c3)c2c1 (stereo not drawn) [IA7858, N-[9-[4-[6-[2-[(6-cyano-4-quinolyl)amino]ethyl]naphthalene-2-carbonyl]piperazin-1-yl]-9-oxo-nonyl]-5-[[2-(2,6-dioxo-3-piperidyl)-1,3-dioxo-isoindolin-4-yl]amino]pentanamide] | 21 | – | –
N#Cc1ccc2nccc(NCCc3ccc4cc(C(=O)N5CCN(C(=O)CCOCCOCCOCCNC(=O)CCNc6cccc7c6C(=O)N(C6CCC(=O)NC6=O)C7=O)CC5)ccc4c3)c2c1 (stereo not drawn) [IA7830, N-[2-[2-[2-[3-[4-[6-[2-[(6-cyano-4-quinolyl)amino]ethyl]naphthalene-2-carbonyl]piperazin-1-yl]-3-oxo-propoxy]ethoxy]ethoxy]ethyl]-3-[[2-(2,6-dioxo-3-piperidyl)-1,3-dioxo-isoindolin-4-yl]amino]propanamide] | 65 | – | –
CN(CCCNC(=O)CCOCCOCCOCCOCCNc1cccc2c1C(=O)N(C1CCC(=O)NC1=O)C2=O)C(=O)c1ccc(N2CCCN(c3ccnc4sc(C(N)=O)c(N)c34)CC2)cc1 (stereo not drawn) [HP8553] | 74 | – | –
Cc1ncsc1-c1ccc(CNC(=O)[C@@H]2C[C@@H](O)CN2C(=O)[C@@H](NC(=O)CCOCCOCCOCCOCCC(=O)N2CCN(C(=O)c3ccc4cc(CCNc5ccnc6ccc(C#N)cc56)ccc4c3)CC2)C(C)(C)C)cc1 [IA7807, (2S,4R)-1-((S)-2-(tert-butyl)-19-(4-(6-(2-((6-cyanoquinolin-4-yl)amino)ethyl)-2-naphthoyl)piperazin-1-yl)-4,19-dioxo-7,10,13,16-tetraoxa-3-azanonadecanoyl)-4-hydroxy-N-(4-(4-methylthiazol-5-yl)benzyl) pyrrolidine-2-carboxamide] | 100 | – | –
Cc1ncsc1-c1ccc(CNC(=O)[C@@H]2C[C@@H](O)CN2C(=O)[C@@H](NC(=O)CCCCCCCCC(=O)N2CCN(C(=O)c3ccc4cc(CCNc5ccnc6ccc(C#N)cc56)ccc4c3)CC2)C(C)(C)C)cc1 (racemic) [IA7862, rac-(2S,4R)-4-hydroxy-N-[[4-(4-methylthiazol-5-yl)phenyl]methyl]-1-[rac-(2S)-2-[[10-[4-[6-[2-[(6-cyano-4-quinolyl)amino]ethyl]naphthalene-2-carbonyl]piperazin-1-yl]-10-oxo-decanoyl]amino]-3,3-dimethyl-butanoyl]pyrrolidine-2-carboxamide] | 69 | – | –
CN1C(=O)CCC(N2C(=O)c3cccc(NCCOCCOCCOCCOCCC(=O)N4CCN(C(=O)c5ccc6cc(CCNc7ccnc8ccc(C#N)cc78)ccc6c5)CC4)c3C2=O)C1=O (stereo not drawn) [IA7803, 4-[2-[6-[4-[3-[2-[2-[2-[2-[[2-(1-methyl-2,6-dioxo-3-piperidyl)-1,3-dioxo-isoindolin-4-yl]amino]ethoxy]ethoxy]ethoxy]ethoxy]propanoyl]piperazine-1-carbonyl]-2-naphthyl]ethylamino]quinoline-6-carbonitrile] | 100 | – | –
N#Cc1ccc2nccc(NCCc3ccc4cc(C(=O)N5CCN(C(=O)CCCCCCCCNC(=O)CCOCCNc6cccc7c6C(=O)N(C6CCC(=O)NC6=O)C7=O)CC5)ccc4c3)c2c1 (stereo not drawn) [IA7835, N-[9-[4-[6-[2-[(6-cyano-4-quinolyl)amino]ethyl]naphthalene-2-carbonyl]piperazin-1-yl]-9-oxo-nonyl]-3-[2-[[2-(2,6-dioxo-3-piperidyl)-1,3-dioxo-isoindolin-4-yl]amino]ethoxy]propanamide] | 45 | – | –
N#Cc1ccc2nccc(NCCc3ccc4cc(C(=O)N5CCN(C(=O)CCCCCCCCCCNC(=O)CCCNc6cccc7c6CN(C6CCC(=O)NC6=O)C7=O)CC5)ccc4c3)c2c1 (stereo not drawn) [IA7869, N-[11-[4-[6-[2-[(6-cyano-4-quinolyl)amino]ethyl]naphthalene-2-carbonyl]piperazin-1-yl]-11-oxo-undecyl]-4-[[2-(2,6-dioxo-3-piperidyl)-1-oxo-isoindolin-4-yl]amino]butanamide] | 43 | – | –
N#Cc1ccc2nccc(NCCc3ccc4cc(C(=O)N5CCN(C(=O)CCCCCCCCC(=O)NCCCCCNc6cccc7c6C(=O)N(C6CCC(=O)NC6=O)C7=O)CC5)ccc4c3)c2c1 (stereo not drawn) [IA7840, 10-[4-[6-[2-[(6-cyano-4-quinolyl)amino]ethyl]naphthalene-2-carbonyl]piperazin-1-yl]-N-[5-[[2-(2,6-dioxo-3-piperidyl)-1,3-dioxo-isoindolin-4-yl]amino]pentyl]-10-oxo-decanamide] | 55 | – | –
CN(CCCNC(=O)CCOCCOCCOCCOCCOCCOCCNc1cccc2c1C(=O)N(C1CCC(=O)NC1=O)C2=O)C(=O)c1ccc(N2CCCN(c3ccnc4sc(C(N)=O)c(N)c34)CC2)cc1 (stereo not drawn) [IA7814, 3-amino-4-[4-[4-[3-[3-[2-[2-[2-[2-[2-[2-[[2-(2,6-dioxo-3-piperidyl)-1,3-dioxo-isoindolin-4-yl]amino]ethoxy]ethoxy]ethoxy]ethoxy]ethoxy]ethoxy]propanoylamino]propyl-methyl-carbamoyl]phenyl]-1,4-diazepan-1-yl]thieno[2,3-b]pyridine-2-carboxamide] | 59 | – | –
N#Cc1ccc2nccc(NCCc3ccc4cc(C(=O)N5CCN(C(=O)CCCCCCCCCCNC(=O)CCCNc6ccc7c(c6)C(=O)N(C6CCC(=O)NC6=O)C7=O)CC5)ccc4c3)c2c1 (stereo not drawn) [IA7868, N-[11-[4-[6-[2-[(6-cyano-4-quinolyl)amino]ethyl]naphthalene-2-carbonyl]piperazin-1-yl]-11-oxo-undecyl]-4-[[2-(2,6-dioxo-3-piperidyl)-1,3-dioxo-isoindolin-5-yl]amino]butanamide] | 39 | – | –
N#Cc1ccc2nccc(NCCc3ccc4cc(C(=O)N5CCN(C(=O)CCCCCCCCCNC(=O)COc6ccc7c(c6)CCCN7C(=O)CCl)CC5)ccc4c3)c2c1 [IA7875, 2-[[1-(2-chloroacetyl)-3,4-dihydro-2H-quinolin-6-yl]oxy]-N-[10-[4-[6-[2-[(6-cyano-4-quinolyl)amino]ethyl]naphthalene-2-carbonyl]piperazin-1-yl]-10-oxo-decyl]acetamide] | 100 | – | –
N#Cc1ccc2nccc(NCCc3ccc4cc(C(=O)N5CCN(C(=O)CCCCCCCCCNC(=O)CCCCCNc6cccc7c6C(=O)N(C6CCC(=O)NC6=O)C7=O)CC5)ccc4c3)c2c1 (stereo not drawn) [IA7859, N-[10-[4-[6-[2-[(6-cyano-4-quinolyl)amino]ethyl]naphthalene-2-carbonyl]piperazin-1-yl]-10-oxo-decyl]-6-[[2-(2,6-dioxo-3-piperidyl)-1,3-dioxo-isoindolin-4-yl]amino]hexanamide] | 81 | – | –
CC(C)(C)C(=O)OCN1C(=O)CCC(N2C(=O)c3cccc(NCCCC(=O)NCCCCCCCCCCC(=O)N4CCN(C(=O)Cn5cc(-c6ccc(-c7cncc8ccccc78)cc6)cn5)CC4)c3C2=O)C1=O (stereo not drawn) [IA7893, (3-(4-((4-((11-(4-(2-(4-(4-(isoquinolin-4-yl)phenyl)-1H-pyrazol-1-yl)acetyl)piperazin-1-yl)-11-oxoundecyl)amino)-4-oxobutyl)amino)-1,3-dioxoisoindolin-2-yl)-2,6-dioxopiperidin-1-yl)methyl pivalate] | – | 9 | highly potent degrader
N#Cc1ccc2nccc(NCCc3ccc4cc(C(=O)N5CCN(C(=O)CCNC(=O)CCOCCOCCOCCOCCNc6cccc7c6C(=O)N(C6CCC(=O)NC6=O)C7=O)CC5)ccc4c3)c2c1 (stereo not drawn) [IA7822, N-[3-[4-[6-[2-[(6-cyano-4-quinolyl)amino]ethyl]naphthalene-2-carbonyl]piperazin-1-yl]-3-oxo-propyl]-3-[2-[2-[2-[2-[[2-(2,6-dioxo-3-piperidyl)-1,3-dioxo-isoindolin-4-yl]amino]ethoxy]ethoxy]ethoxy]ethoxy]propanamide] | 65 | – | –
O=C1CCC(N2C(=O)c3cccc(NCCCCC(=O)N4CCN(C(=O)Cn5cc(-c6ccc(-c7cncc8ccccc78)cc6)cn5)CC4)c3C2=O)C(=O)N1 (stereo not drawn) [IA7895, 2-(2,6-dioxopiperidin-3-yl)-4-((5-(4-(2-(4-(4-(isoquinolin-4-yl)phenyl)-1H-pyrazol-1-yl)acetyl)piperazin-1-yl)-5-oxopentyl)amino) isoindoline-1,3-dione] | – | 70 | –
